This note sets out measurements from patent US12221448B2, “Selective PI3Kδ inhibitor and use thereof” (TARAPEUTICS SCIENCE INC., priority 2018, dated 2025).

pIC50: −log10 of the molar value.

Usually IC50 stands for the point on the concentration scale where inhibition reaches its midpoint. Usually pIC50 stands for the IC50 on a negative log10 scale, so that one unit is a factor of ten.

Data set [1] deals with rat model of adjuvant arthritis. Nature of the data set: Efficacy in rat model of rheumatoid arthritis (adjuvant arthritis). It counts as in vivo, Sprague-Dawley (SD) rats. Conditions: 25 mg/kg/day, oral gavage, once a day. On the procedure:
In this example, the experimental results of Compound 9 were tested in a rat model of adjuvant arthritis.
(1) Sprague-Dawley (SD) rats, female, weighing 180 g±20 g, were purchased from Beijing Vital River Laboratory Animal Technology Co., Ltd. and maintained in an SPL laboratory. Drinking water and litter were sterilized by autoclaving, and all operations related to the rats were performed under sterile conditions.
(2) In the vehicle group and the treatment group, 10.0 mg/ml CFA (complete Freund's adjuvant, purchased from Sigma, US) was mixed thoroughly, and 0.1 ml of the CFA was injected intracutaneously into the right rear vola pedis of each rat on day 0 to induce inflammation; the normal group was injected with saline in the same way.
(3) Body weight and paw swelling were measured every 3 or 4 days after modeling. […]
(4) The body weight and paw swelling were measured every two days after administration, and the paw swelling was measured with a paw swelling meter. […] After the inflammation, the volume of left rear foot was measured to obtain the swelling degree of the secondary paw (Δm1=|paw volume after injection−paw volume before injection|).

The target of a further data set is T1, PI3Kβ (Homo sapiens, UniProt P42338).
T1 construct: purchased sigma (US)
Nature of the data set: In vitro enzyme activity (ADP-Glo) against PI3Kβ. It counts as biochemical. Conditions: Table 2; ATP 10 μM, PIP2:PS 50 μM; read-out: IC50 against PI3Kβ. The procedure: (§1) In vitro enzyme activity experiments were performed to determine the IC50 values of the compounds against PI3K family type I kinases (PI3Kα, PI3Kβ, PI3Kγ, PI3Kδ) and type II kinases (PIK3C2A, PIK3C2B). Protein kinases PI3Kα, PI3Kγ, PI3Kδ, PIK3C2A, and PIK3C2B were all purchased from Invitrogen (US); protein kinase PI3Kβ was purchased from sigma (US); the three substrates PIP2: PS, PI and PI: PS were purchased from Invitrogen (US).
(§2) Protein kinases diluted to a certain concentration, i.e., PI3Kα 5.4 μL (with a final concentration of 0.16 ng/μL), PI3Kβ 5.4 μL (with a final concentration of 6 ng/μL), PI3Kδ 5.4 μL (with a final concentration of 1 ng/μL), PI3Kγ 5.4 μL (with a final concentration of 5 ng/μL), PIK3C2A 5.4 μL (with a final concentration of 5 ng/μL), and PIK3C2B 5.4 μL (with a final concentration of 10 ng/μL) were respectively reacted with 1 μL of the serially diluted drug compounds for 1 hour at room temperature (final drug concentrations were 10 μM, 1 μM, 0.3 μM, 0.1 μM, 0.03 μM, 0.01 μM, 0.003 μM, and 0.001 μM, respectively).
(§3) To each reaction tube of the above PI3K family type I kinases, 6 μL of a mixture of ATP (Promega, US) and substrate PIP2:PS (final concentrations of ATP in the reaction systems of kinases PI3Kα, and PI3Kβ were 10 μM, and final concentrations of ATP in the reaction systems of kinases PI3Kδ, and PI3Kγ were 50 μM, and final concentrations of the substrate PIP2:PS were all 50 μM) was added, and reacted at 37° C. for 1 hour. The reaction buffer was 50 mM Hepes (pH 7.5) (Promega, USA), 3 mM MgCl2, 1 mM EGTA (Promega, US), 100 mM NaCl, 0.03% CHAPS (Promega, US).
(§4) 5 μL of kinase solution after reaction was placed in a 384-well plate (Corning, US), and 5 μL of ADP-Glo™ reagent (Promega, US) was added thereto and reacted at room temperature for 40 minutes to stop the kinase reaction and exhaust the remaining ATP; 10 μL of kinase detection reagent was added to convert ADP into ATP, and coupled luciferase/luciferin reaction was utilized to detect the newly synthesized ATP. Envision was utilized for readout and plotting, and Graphpad IC50 value was calculated.
Background: ADP-Glo turns the ADP formed in a reaction into a luminescent signal.

The target in the next data set is T2, PI3Kδ (Homo sapiens, UniProt O00329).
T2 construct: purchased Invitrogen (US)
Nature of the data set: In vitro enzyme activity (ADP-Glo) against PI3Kδ. Type of data set: biochemical. Conditions: Table 2; ATP 50 μM, PIP2:PS 50 μM. The procedure:
as §1, §2, §3, §4

Another data set concerns the target T3, PIK3C2A (Homo sapiens, UniProt O00443).
T3 construct: purchased Invitrogen (US)
Briefly: In vitro enzyme activity (ADP-Glo) against PIK3C2A. Type of data set: biochemical. Conditions: Table 3; ATP 50 μM, substrate PI 100 μM; read-out: IC50 PI3KC2A. The procedure: (§5) In vitro enzyme activity experiments were performed to determine the IC50 values of the compounds against PI3K family type I kinases (PI3Kα, PI3Kβ, PI3Kγ, PI3Kδ) and type II kinases (PIK3C2A, PIK3C2B). Protein kinases PI3Kα, PI3Kγ, PI3Kδ, PIK3C2A, and PIK3C2B were all purchased from Invitrogen (US); protein kinase PI3Kβ was purchased from sigma (US); the three substrates PIP2: PS, PI and PI: PS were purchased from Invitrogen (US). […]
as §4

The target in another data set is T4, PI3Kα (Homo sapiens, UniProt P42336).
T4 construct: purchased Invitrogen (US)
Briefly: In vitro enzyme activity (ADP-Glo) against PI3Kα. Type of data set: biochemical. Conditions: Table 2; ATP 10 μM, PIP2:PS 50 μM. The procedure:
as §1, §2, §3, §4

A further data set has as its target T5, PI3Kγ (Homo sapiens, UniProt P48736).
T5 construct: purchased Invitrogen (US)
Briefly: In vitro enzyme activity (ADP-Glo) against PI3Kγ. It counts as biochemical. Conditions: Table 2; ATP 50 μM, PIP2:PS 50 μM; read-out: IC50 against PI3Kγ. On the procedure:
as §1, §2, §3, §4

In a further data set the target is T6, PIK3C2B (Homo sapiens, UniProt O00750).
T6 construct: purchased Invitrogen (US)
Briefly: In vitro enzyme activity (ADP-Glo) against PIK3C2B. It counts as biochemical. Conditions: Table 3; ATP 50 μM, substrate PI 100 μM; read-out: IC50 PI3KC2B. On the procedure: as §5, §4

T2 sequence (O00329 whole entry): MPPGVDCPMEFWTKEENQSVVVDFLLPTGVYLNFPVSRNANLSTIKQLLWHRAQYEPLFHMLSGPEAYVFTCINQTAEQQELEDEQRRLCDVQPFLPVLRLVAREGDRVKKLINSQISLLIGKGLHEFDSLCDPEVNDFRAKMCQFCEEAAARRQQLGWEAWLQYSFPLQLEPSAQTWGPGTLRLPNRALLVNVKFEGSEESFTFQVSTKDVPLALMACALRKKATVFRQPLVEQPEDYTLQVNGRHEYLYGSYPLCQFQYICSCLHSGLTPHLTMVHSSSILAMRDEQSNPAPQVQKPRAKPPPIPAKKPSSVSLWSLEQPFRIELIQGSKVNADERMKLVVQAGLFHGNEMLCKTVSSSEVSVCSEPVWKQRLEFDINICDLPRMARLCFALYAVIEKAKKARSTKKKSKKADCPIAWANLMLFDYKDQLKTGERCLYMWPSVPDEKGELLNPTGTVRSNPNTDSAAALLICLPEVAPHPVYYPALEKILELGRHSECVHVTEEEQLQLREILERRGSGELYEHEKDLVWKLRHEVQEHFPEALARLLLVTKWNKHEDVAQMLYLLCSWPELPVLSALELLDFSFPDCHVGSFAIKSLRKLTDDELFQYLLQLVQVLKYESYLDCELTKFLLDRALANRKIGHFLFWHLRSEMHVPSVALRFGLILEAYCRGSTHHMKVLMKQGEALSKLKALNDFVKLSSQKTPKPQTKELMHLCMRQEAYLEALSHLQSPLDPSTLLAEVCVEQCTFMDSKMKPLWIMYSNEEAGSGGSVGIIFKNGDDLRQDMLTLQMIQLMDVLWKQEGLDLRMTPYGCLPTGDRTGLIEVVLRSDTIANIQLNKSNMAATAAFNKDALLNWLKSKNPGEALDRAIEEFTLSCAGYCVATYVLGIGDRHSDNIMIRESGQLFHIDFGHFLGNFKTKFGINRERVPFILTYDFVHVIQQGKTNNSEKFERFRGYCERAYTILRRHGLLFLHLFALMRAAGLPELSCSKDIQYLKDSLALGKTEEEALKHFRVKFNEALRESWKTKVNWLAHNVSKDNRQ
T2 sequence (P27986 whole entry partner): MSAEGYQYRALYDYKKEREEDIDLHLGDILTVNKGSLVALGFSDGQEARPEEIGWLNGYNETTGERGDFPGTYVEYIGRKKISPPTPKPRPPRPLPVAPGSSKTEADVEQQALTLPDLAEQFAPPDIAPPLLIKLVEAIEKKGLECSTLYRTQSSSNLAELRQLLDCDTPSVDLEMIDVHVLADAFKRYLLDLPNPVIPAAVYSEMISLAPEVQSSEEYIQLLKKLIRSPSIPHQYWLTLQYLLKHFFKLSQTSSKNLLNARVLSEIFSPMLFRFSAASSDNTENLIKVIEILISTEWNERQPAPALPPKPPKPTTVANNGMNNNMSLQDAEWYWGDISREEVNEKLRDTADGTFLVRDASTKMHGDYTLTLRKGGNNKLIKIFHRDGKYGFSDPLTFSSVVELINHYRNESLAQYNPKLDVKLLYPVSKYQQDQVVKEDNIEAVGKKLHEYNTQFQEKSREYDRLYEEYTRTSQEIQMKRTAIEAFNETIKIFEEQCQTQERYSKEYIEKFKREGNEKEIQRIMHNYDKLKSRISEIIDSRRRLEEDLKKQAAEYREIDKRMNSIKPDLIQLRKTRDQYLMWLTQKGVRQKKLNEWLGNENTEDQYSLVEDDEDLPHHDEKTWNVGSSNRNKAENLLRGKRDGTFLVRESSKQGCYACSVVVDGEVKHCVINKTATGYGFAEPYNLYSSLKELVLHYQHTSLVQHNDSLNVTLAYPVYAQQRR
T6 sequence (O00750 whole entry): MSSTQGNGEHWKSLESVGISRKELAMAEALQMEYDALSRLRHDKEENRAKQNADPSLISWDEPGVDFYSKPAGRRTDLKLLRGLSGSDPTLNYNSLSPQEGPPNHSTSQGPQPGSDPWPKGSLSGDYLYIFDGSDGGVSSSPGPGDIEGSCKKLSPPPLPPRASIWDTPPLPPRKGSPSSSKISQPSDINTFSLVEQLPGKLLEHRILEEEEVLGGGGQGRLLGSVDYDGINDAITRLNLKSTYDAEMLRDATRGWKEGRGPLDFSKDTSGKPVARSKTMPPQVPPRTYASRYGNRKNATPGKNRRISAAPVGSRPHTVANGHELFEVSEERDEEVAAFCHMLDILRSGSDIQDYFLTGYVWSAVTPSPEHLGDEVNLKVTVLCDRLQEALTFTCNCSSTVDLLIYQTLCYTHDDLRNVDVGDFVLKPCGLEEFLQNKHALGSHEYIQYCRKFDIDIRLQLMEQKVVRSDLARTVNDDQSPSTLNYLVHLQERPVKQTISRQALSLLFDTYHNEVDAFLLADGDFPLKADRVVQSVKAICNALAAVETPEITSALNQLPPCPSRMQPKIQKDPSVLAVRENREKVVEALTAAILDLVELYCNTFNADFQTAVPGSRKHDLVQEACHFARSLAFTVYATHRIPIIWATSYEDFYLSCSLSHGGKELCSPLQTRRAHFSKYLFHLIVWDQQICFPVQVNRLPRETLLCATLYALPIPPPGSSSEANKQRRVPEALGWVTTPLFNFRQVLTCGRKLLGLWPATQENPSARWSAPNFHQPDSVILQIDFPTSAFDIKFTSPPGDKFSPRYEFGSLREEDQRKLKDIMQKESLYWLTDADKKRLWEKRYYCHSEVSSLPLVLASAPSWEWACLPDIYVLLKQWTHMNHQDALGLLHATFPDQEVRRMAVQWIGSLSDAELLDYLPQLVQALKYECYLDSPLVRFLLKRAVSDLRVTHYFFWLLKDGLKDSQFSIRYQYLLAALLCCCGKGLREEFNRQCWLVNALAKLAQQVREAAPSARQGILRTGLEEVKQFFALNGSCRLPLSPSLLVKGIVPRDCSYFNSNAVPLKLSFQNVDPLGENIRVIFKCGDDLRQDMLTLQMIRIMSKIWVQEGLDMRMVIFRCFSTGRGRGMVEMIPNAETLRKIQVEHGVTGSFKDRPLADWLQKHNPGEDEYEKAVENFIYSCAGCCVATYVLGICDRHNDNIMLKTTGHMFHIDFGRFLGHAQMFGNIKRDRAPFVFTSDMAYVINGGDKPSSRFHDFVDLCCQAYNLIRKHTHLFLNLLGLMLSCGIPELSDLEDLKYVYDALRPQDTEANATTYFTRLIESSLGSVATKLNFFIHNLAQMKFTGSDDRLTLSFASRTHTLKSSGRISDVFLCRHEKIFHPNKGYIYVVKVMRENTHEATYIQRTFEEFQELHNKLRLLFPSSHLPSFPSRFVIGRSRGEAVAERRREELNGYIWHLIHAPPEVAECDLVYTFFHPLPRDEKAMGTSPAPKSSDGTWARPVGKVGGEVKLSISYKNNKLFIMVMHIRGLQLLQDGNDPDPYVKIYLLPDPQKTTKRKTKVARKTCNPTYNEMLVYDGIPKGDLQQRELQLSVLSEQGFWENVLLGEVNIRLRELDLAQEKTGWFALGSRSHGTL
T1 sequence (P42338 whole entry): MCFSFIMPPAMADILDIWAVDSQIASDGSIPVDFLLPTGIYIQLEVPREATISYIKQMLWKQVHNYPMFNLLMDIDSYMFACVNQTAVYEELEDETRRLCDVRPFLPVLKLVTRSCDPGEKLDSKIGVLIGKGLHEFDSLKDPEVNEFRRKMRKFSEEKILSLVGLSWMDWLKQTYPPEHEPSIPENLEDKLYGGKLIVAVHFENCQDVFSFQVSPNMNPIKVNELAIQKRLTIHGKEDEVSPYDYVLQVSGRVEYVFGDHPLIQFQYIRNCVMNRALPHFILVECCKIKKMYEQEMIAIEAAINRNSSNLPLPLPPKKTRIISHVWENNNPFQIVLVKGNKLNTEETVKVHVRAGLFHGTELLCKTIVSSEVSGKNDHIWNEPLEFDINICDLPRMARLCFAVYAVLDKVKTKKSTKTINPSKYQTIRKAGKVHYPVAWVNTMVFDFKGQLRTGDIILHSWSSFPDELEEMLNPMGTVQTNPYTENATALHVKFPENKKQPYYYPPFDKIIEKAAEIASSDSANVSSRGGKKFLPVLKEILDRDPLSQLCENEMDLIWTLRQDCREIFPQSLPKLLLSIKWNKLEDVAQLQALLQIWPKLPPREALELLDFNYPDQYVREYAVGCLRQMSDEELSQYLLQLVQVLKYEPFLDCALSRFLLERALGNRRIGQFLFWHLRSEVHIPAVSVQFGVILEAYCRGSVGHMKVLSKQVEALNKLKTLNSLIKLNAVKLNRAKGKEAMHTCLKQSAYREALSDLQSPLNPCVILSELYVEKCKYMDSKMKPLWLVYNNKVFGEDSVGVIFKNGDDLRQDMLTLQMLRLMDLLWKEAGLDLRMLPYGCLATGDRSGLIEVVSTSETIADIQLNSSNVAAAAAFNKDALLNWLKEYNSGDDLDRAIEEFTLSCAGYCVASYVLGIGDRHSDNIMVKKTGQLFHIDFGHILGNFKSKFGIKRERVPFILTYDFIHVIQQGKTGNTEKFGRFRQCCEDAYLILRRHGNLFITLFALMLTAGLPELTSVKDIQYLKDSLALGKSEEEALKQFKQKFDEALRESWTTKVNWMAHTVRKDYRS
T1 sequence (P27986 whole entry partner): as the sequence (P27986 whole entry partner) above

Consider `CCC(c1nc2cccc(F)c2c(=O)n1C1CC1)n1nc(-c2ccc(OC)c(F)c2)c2c(N)ncnc21` (centres unmarked) [Compound 9, 2-(1-(4-amino-3-(3-fluoro-4-methoxyphenyl)-1H-pyrazolo [3,4-d]pyrimidin-1-yl)propyl)-3-cyclopropyl-5-fluoroquinazolin-4(3H)-one], for which, in data set [1] (14 days, FIG. 1a), the “effect on the body weight of rats” value is given as “no significant effect”. Further, the “paw swelling as compared with the vehicle group” value in data set [1] (after 14 days of administration, FIG. 1b) is “significantly reduced”. Besides, the IC50 at PI3Kβ worked out at 1.16 µM; against PI3Kδ, 0.0173 µM; against PI3Kα, 3.35 µM; at PI3Kγ, 0.685 µM. The pIC50 on PIK3C2A was less than 5.00; on PIK3C2B, 5.00.
